According to US8394821B2, “Activated blood coagulation factor inhibitor” (Daiichi Sankyo Company, Limited, priority 2009, dated 2013):
In brackets after ≈: the same amount, converted by molar mass. Like-named read-outs stand apart in the source and are kept apart here.

Key:
Assay type in all cases: physicochemical
[1] = Evaluation of solubility (37° C., 30 min, HPLC); conditions: thermodynamic from solid
Method: A supersaturated amount of each sample was placed in a 12-mL test tube, and 3 mL of a test solution (water, Japanese Pharmacopoeia disintegration test solution No. 1 (JP1), and Japanese Pharmacopoeia disintegration test solution No. 2 (JP2)) was added thereto. The test tube was incubated in a constant-temperature water bath at 37° C. The test tube was shaken using a vortex mixer for 30 seconds every 5 minutes. 30 minutes later, the supernatant was filtered through a membrane filter (pore size: 0.45 μm), appropriately diluted with eluent, and then analyzed by HPLC under the following conditions. The concentration was calculated from a calibration curve prepared before measurement.
Measurement conditions of HPLC (column: Waters Symmetry C18 4.6 mm×150 mm, eluent: 0.05 M phosphate buffer (pH 5.0): acetonitrile=70:30, flow rate: 1 mL/min., detection: UV 220 nm, column temperature: 40° C.)

[2] = Evaluation of crystal stability (storage at 25° C. at adjusted relative humidity); conditions: for 0% RH Weight change (%) / 52% RH Weight change (%) / 93% RH Weight change (%): 25° C., 3-day storage
Method: Approximately 50 mg of each of various samples prepared in Example 1 was placed in a weighing bottle and stored at 25° C. in a desiccator whose relative humidity was adjusted to 0%, 52%, or 93% by a saturated salt solution method (silica gel, Mg(NO3)2, KNO3). […]

[3] = Evaluation of chemical stability (dry heat, wet heat, light irradiation; HPLC residue); conditions: for Residue (%, mean ± SD) Light irradiation (Lx · hr) 60 × 10^4: light irradiation 60 × 10^4 Lx · hr; for Residue (%, mean ± SD) Light irradiation (Lx · hr) 120 × 10^4: light irradiation 120 × 10^4 Lx · hr; for Residue (%, mean ± SD) 50° C., 0% RH 1 week later / Residue (%, mean ± SD) 50° C., 0% RH 2 week later: dry heat 50° C.; for Residue (%, mean ± SD) 50° C., 0% RH 2 week later / Residue (%, mean ± SD) 40° C., 75% RH 2 week later: 2 weeks; for Residue (%, mean ± SD) 40° C., 75% RH 1 week later / Residue (%, mean ± SD) 40° C., 75% RH 2 week later: wet heat 40° C.
Method: Approximately 2 mg of each of various samples prepared in Example 1 was weighed into an aluminum pan for thermal analysis and stored under dry heat (50° C., 0% RH) or wet heat (40° C., 75% RH) conditions. 1 week or 2 weeks later, each sample was collected, and the weight change was measured. Then, the whole amount was dissolved in 20 mL of eluent and analyzed by HPLC. For photolysis samples, approximately 10 mg of each sample was weighed into a weighing bottle and stored at 25° C. in a light irradiator. After irradiation at 600,000 or 1,200,000 Lx/hr, the sample was collected, and the weight change was measured. Then, the whole amount was dissolved in 100 mL of eluent and analyzed by HPLC. The residue proportion was determined from the ratio between the concentration of the sample solution calculated from a calibration curve prepared before measurement and the theoretical concentration calculated from weight measurement.
Measurement conditions of HPLC (column: Waters Symmetry C18 4.6 mm×150 mm, eluent: 0.05 M phosphate buffer (pH 5.0): acetonitrile=80:20, flow rate: 1 mL/min., detection: UV 220 nm, column temperature: 40° C.)

[4] = Moisture absorption and desorption characteristics (microbalance, water vapor adsorption apparatus); conditions: 25° C., 10-90% RH
Method: Various samples prepared in Example 1 were separately placed in quartz holders and measured for their moisture absorption and desorption behavior under the following conditions using a microbalance.
Moisture absorption and desorption behavior measurement conditions (sample volume: approximately 20 mg, measurement range: 10-90% RH, measurement temperature: 25° C., variable: within 0.03%, varying length of time: 10 min., apparatus: VTI atmospheric pressure-type automatic water vapor adsorption apparatus SGA-100)

solubility at 30 min ([1]; pH 1.2, simulated gastric fluid, Japanese Pharmacopoeia disintegration test solution No. 1, 37° C., read-out: JP1 (Solubility (μg/mL))) [µg/mL]	solubility at 30 min ([1]; pH 6.8, aqueous buffer, Japanese Pharmacopoeia disintegration test solution No. 2, 37° C., read-out: JP2 (Solubility (μg/mL))) [µg/mL]	solubility at 30 min ([1]; water, 37° C., read-out: Water (Solubility (μg/mL))) [µg/mL]	0% RH Weight change (%) [2] [%]	52% RH Weight change (%) [2] [%]	93% RH Weight change (%) [2] [%]	Light irradiation Color ([3]; 25° C., after light irradiation)	Residue (%, mean ± SD) Light irradiation (Lx · hr) 60 × 10^4 ([3]; 25° C.) [%]	Residue (%, mean ± SD) Light irradiation (Lx · hr) 120 × 10^4 ([3]; 25° C.) [%]	Residue (%, mean ± SD) 50° C., 0% RH 1 week later [3] [%]	Residue (%, mean ± SD) 50° C., 0% RH 2 week later [3] [%]	Residue (%, mean ± SD) 40° C., 75% RH 1 week later [3] [%]	Residue (%, mean ± SD) 40° C., 75% RH 2 week later [3] [%]	Structure (SMILES)	moisture absorption and desorption characteristics/behavior (in words) [4]	stability on storage: weight and crystal form (in words) ([2]; stored for 3 days under three standard relative humidity conditions at 25° C.)
> 2000	49.8 (≈ 90.9 µM)	47.5 (≈ 86.7 µM)	−0.32	−0.22	−0.04	Changed	92.0 ± 0.3	82.8 ± 0.4	99.3 ± 0.4	97.5 ± 0.7	99.8 ± 0.3	98.7 ± 1.3	CN1CCc2nc(C(=O)N[C@@H]3C[C@@H](C(=O)N(C)C)CC[C@@H]3NC(=O)C(=O)Nc3ccc(Cl)cn3)sc2C1 [Compound A, N^1-(5-chloropyridin-2-yl)-N^2-((1S,2R,4S)-4-[(dimethylamino)carbonyl]-2-{[(5-methyl-4,5,6,7-tetrahydrothiazolo[5,4-c]pyridin-2-yl)carbonyl]amino}cyclohexyl)ethanediamide]		
			−0.35	0.05	0.31		98.2 ± 0.9	95.0 ± 1.2	100.4 ± 0.7	100.1 ± 0.7	100.1 ± 0.7	100.1 ± 0.3	CN1CCc2nc(C(=O)N[C@@H]3C[C@@H](C(=O)N(C)C)CC[C@@H]3NC(=O)C(=O)Nc3ccc(Cl)cn3)sc2C1.O.O=C(O)C(O)C(O)C(=O)O [compound II, N^1-(5-chloropyridin-2-yl)-N^2-((1S,2R,4S)-4-[(dimethylamino)carbonyl]-2-{[(5-methyl-4,5,6,7-tetrahydrothiazolo[5,4-c]pyridin-2-yl)carbonyl]amino}cyclohexyl)ethanediamide(+)-tartrate monohydrate]	favorable moisture absorption and desorption characteristics	stable without change both in weight and in crystal form
